Legend:
Puccinia recondita = assay: Fungicidal activity in preventive application (5 days) on wheat; assay type: in vivo, Puccinia recondita on wheat (Salgemma variety); conditions: leaf spray 5 days before inoculation, reduction of affected leaf area vs untreated, scale 0-100
Protocol: Leaves of wheat plants of the […] variety, grown in pots in a conditioned environment kept at 20° C. and 70% of relative humidity (R.H.), were treated by spraying both sides of the leaves with the compounds and the compositions under testing, dispersed in hydroacetonic solutions at 20% by volume of acetone. After remaining 5 days in a conditioned environment, the plants were sprayed on both sides of the leaves with an aqueous suspension of conidia of Puccinia recondita (2 mg of inoculum per 1 ml of solution for infection). After being sprayed, the plants were kept in a humidity-saturated environment at a temperature ranging from 18 to 24° C. for the incubation period of the fungus (1 day). After this period, the plants were put in a greenhouse with R.H. of 70% and at a temperature of 18-24° C. for 14 days. At the end of this period the external symptoms of the pathogen appeared and it was therefore possible to proceed with the visual assessment of the intensity of the infection. The fungicidal activity was expressed as percentage of reduction of affected leaves areas with respect to those of untreated plants used as control: the scale comprised, as extremes, the value 100 (full activity; healthy plant) and the value 0 (no activity; completely infected plant).

[1] = tested on: Stagonospora nodorum (SN); assay: In vitro growth inhibition of spore suspensions (optical density 405 nm, 43 h); assay type: cell-based; conditions: concentration giving 50% growth inhibition; Stagonospora nodorum spores, 43 hours at room temperature, average of three replicates
wheat plants = assay: Phytotoxicity (percentage of leaf necrosis) on wheat plants; assay type: in vivo, wheat (Salgemma variety); conditions: scale 0 (none) to 100
Protocol: Leaves of wheat plants of the Salgemma variety, grown in pots in a conditioned environment kept at 20° C. and 70% of relative humidity (R.H.), were treated by spraying both sides of the leaves with the compounds and the compositions under testing, dispersed in hydroacetonic solutions at 20% by volume of acetone.
At the same time, the phytotoxicity (percentage of leaf necrosis) induced on the wheat plants by the application of the products and compositions was evaluated: in this case, the scale ranged from 0 (no phytotoxicity) to 100 (completely necrotized plant).

Botrytis cinerea (BC) = assay: In vitro growth inhibition of spore suspensions (optical density 405 nm, 43 h); assay type: cell-based; conditions: concentration giving 50% growth inhibition; Botrytis cinerea spores, 43 hours at room temperature, average of three replicates

Row | SMILES | % Activity (Puccinia recondita; Rate 62.5 ppm) [%] | % Activity (Puccinia recondita; Rate 125 ppm) [%] | SN EC50 [1] [ppm] | % Phytotoxicity (wheat plants; Rate 62.5 ppm) [%] | % Phytotoxicity (wheat plants; Rate 125 ppm) [%] | EC50 against Botrytis cinerea (Botrytis cinerea (BC))
1 | CC1CC(C)(C)c2c(F)ccc(NC(=O)c3cn(C)nc3C(F)F)c21 (single isomer, unassigned; (-)) [(−)-(I), 3-difluoromethyl-N-(7-fluoro-1,1,3-trimethyl-4-indanyl)-1-methyl-4-pyrazolecarboxamide] | 96 | 100 | 0.42 | 0 | 0 | 0.17 ppm
2 | CC1CC(C)(C)c2c(F)ccc(NC(=O)c3cn(C)nc3C(F)F)c21 (single isomer, unassigned; (+)) [(+)-(I), 3-difluoromethyl-N-(7-fluoro-1,1,3-trimethyl-4-indanyl)-1-methyl-4-pyrazolecarboxamide] | 20 | 45 | 72 | 0 | 0 | n.i.
3 | CC1CC(C)(C)c2c(F)ccc(NC(=O)c3cn(C)nc3C(F)F)c21 (racemic) [Racemic (I), 3-difluoromethyl-N-(7-fluoro-1,1,3-trimethyl-4-indanyl)-1-methyl-4-pyrazolecarboxamide] | 96 | 98 | 1.1 | 0 | 0 | 0.32 ppm

— patent US10143200B2, “Synergistic compositions for the protection of agrarian crops and the use thereof” (STICHTING I-F PRODUCT COLLABORATION, priority 2012, dated 2018)
